Assay results from patent publication US20070142397A2, “PHENYPIPERAZINE DERIVATIVES WITH A COMBINATION OF PARTIAL DOPAMINE-D2 RECEPTOR AGONISM AND SEROTONIN REUPTAKE INHIBITION” (SOLVAY PHARMECEUTICALS B.V., priority 2004, published 2007).
Counter-ions that a name gives are not always drawn. Like-named read-outs stand apart in the source and are kept apart here.

Legend:
dopamine-D2 receptors = molecular target: T1, dopamine-D2 receptors (Rattus norvegicus, UniProt P61169); test: In vitro affinity for dopamine-D2 receptors ([3H]-spiroperidol receptor binding assay, Creese et al.)
T1 construct: labels dopamine receptors in rat pituitary and brain; from tissue; host or cells: rat brain / pituitary membranes (from the title of the cited method)
Method: In Vitro Affinity for Dopamine-D2 Receptors
Affinity of the compounds for dopamine-D2 receptors was determined using the receptor binding assay described by I. Creese, R. Schneider and S. H. Snyder: “[^3H]-Spiroperidol labels dopamine receptors in rat pituitary and brain”, Eur. J. Pharmacol., 46, 377-381, 1977.
(§1) The affinity of the compounds of the invention for dopamine-D2 receptors and serotonine reuptake sites was determined as described above. From the binding affinity measured for a given compound of formula (1), one can estimate a theoretical lowest effective dose. At a concentration of the compound equal to twice the measured Ki-value, 100% of the receptors likely will be occupied by the compound. Converting that concentration to mg of compound per kg of patient yields a theoretical lowest effective dose, assuming ideal bioavailability. Pharmacokinetic, pharmacodynamic, and other considerations may alter the dose actually administered to a higher or lower value. The dosage expediently administered is 0.001-1000 mg/kg, preferably 0.1-100 mg/kg of patient's bodyweight.

[1] = molecular target: T2, Human dopamine D2,L receptors (Homo sapiens, UniProt P14416); test: Inhibition of forskolin-induced [3H]-cAMP accumulation in CHO-K1 cells; format: cell-based; conditions: Cloned human dopamine D2,L receptors, full agonist ε=1, full antagonist ε=0
T2 construct: host or cells: CHO-K1
Method: Inhibition of Forskolin-Induced [^3H]-cAMP Accumulation
The in vitro functional activity at dopamine-D2 receptors, including the intrinsic activity (ε) of the compounds of the invention was measured by their ability to inhibit forskolin-induced [^3H]-cAMP accumulation.
Human dopamine D2,L receptors were Cloned in fibroblast cell line CHO-K1 cells and obtained from Dr. Grandy, Vollum Institute, Portland, Oreg., USA. CHO cells were grown in a Dulbecco's modified Eagle's medium (DMEM) culture medium, supplemented with 10% heat-inactivated fetal calf serum, 2 mM glutamine, 1 mM pyruvate, 5000 units/ml penicillin, 5000 μg/ml streptomycin and 200 μg/ml G-418 at 37° C. in 93% air/7% CO2. For incubation with test compounds, confluent cultures grown in 24 wells plates were used. Each condition or substance was routinely tested in quadruplicate. Cells were loaded with 1 μci [^3H]-adenine in 0.5 ml medium/well. After 2 hours, cultures were washed with 0.5 ml PBS containing 1 mM of the phospho-diesterase inhibitor isobutylmethylxanthine (IBMX) and incubated for 20 min with 0.5 ml PBS containing 1 mM IBMX and forskolin with or without test compound. After aspiration the reaction was stopped with 1 ml trichloroacetic acid 5% (w/v). […] 0.8 ml Extract was passed over Dowex (50WX-4 200-400 mesh) and aluminumoxide columns, eluted with water and 0.1M imidazole (pH=7.5). Eluates were mixed with 7 ml Insta-gel and radioactivity was counted with a liquid scintillation counter. The conversion of [^3H]-ATP into [^3H]-cAMP was expressed as the ratio in percentage radioactivity in the cAMP fraction as compared to combined radioactivity in both cAMP and ATP fractions, and basal activity was subtracted to correct for spontaneous activity.
Test compounds were obtained as 10 mM stock solutions in 100% DMSO, and diluted in PBS/IBMX to final concentrations. Typically, compounds were used in concentrations that ranged from 10^−10M to 10^−5M. From quadruplicate data counts, the mean was taken as an estimate for drug-induced, receptor-mediated effects at specified second messenger accumulation, expressed as percentage of control values (forskolin-stimulated cAMP accumulation, subtracted by basal activity). By using the non-linear curve-fitting program INPLOT or the Excel-add-in XL-Fit, mean values were plotted against drug concentration (in molar) and a sigmoid curve (four-parameter logistic curve) was constructed. The maximal forskolin-induced stimulated conversion is taken as maximum value and the maximal inhibition (usually at drug concentrations 10^−6 M or 10^−5 M) as minimum and these values were fixed during the fitting process. Thus, concentrations of the compound, causing 50% of the maximally obtained inhibition of forskolin-induced cAMP accumulation (EC50), are averaged over several experiments and presented as mean pEC50±SEM. Antagonist potency is assessed by co-incubating cells with a fixed agonist concentration and specified antagonist concentrations. Curve fitting procedures are identical to those used for estimating EC50 values. Thus IC50 values, i.e. the concentration that is able to achieve 50% of maximal antagonism that can be achieved by this compound. IC50 values are corrected using a Cheng-Prussoff equation, correcting it for agonist concentration and EC50 values that is obtained in the same experiment. Thus, Kb=IC50/(1+[agonist]/EC50, agonist).The corresponding pA2 value is −log (Kb). Concentration-response curve fitting allows estimation of pEC50 values and of maximal achievable effect (intrinsic activity or efficacy (ε). A full receptor agonist has ε=1, a full receptor antagonist has ε=0, and a partial receptor agonist has an intermediate intrinsic activity.

serotonin reuptake sites = molecular target: T3, serotonin reuptake sites (Rattus norvegicus, UniProt P31652); test: In vitro affinity for serotonin reuptake sites ([3H]-paroxetine binding assay, Habert et al.)
T3 construct: from tissue; host or cells: rat cortical membranes (from the title of the cited method)
Method: In Vitro Affinity for Serotonin Reuptake Sites
Affinity of the compounds for serotonin reuptake sites was determined using the receptor binding assay described by E. Habert et al.,: “Characterisation of [^3H]-paroxetine binding to rat cortical membranes”, Eur. J. Pharmacol., 118, 107-114, 1985.
as §1

[2] = receptor binding, read-out: Dopamine-D2 binding pKi (converted)
[3] = receptor binding, read-out: 5-HT reuptake binding pKi (converted)

T3 sequence (P31652 whole entry): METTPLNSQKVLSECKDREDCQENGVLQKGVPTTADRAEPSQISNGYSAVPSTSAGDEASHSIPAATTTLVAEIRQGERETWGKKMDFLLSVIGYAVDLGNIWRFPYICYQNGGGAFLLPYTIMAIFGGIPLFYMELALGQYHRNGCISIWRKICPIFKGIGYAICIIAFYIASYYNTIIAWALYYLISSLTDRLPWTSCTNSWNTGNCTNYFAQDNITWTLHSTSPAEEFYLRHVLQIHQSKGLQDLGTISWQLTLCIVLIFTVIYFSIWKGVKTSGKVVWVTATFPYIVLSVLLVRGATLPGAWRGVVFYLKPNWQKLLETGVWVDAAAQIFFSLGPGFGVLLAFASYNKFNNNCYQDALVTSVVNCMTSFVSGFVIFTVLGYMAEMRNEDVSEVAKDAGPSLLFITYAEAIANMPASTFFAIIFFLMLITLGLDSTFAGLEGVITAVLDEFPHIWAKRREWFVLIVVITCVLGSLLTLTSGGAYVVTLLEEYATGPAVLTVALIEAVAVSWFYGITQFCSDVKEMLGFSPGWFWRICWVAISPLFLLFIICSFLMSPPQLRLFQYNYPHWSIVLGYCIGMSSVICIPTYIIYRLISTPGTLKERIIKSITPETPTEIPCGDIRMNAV
T1 sequence (P61169 whole entry): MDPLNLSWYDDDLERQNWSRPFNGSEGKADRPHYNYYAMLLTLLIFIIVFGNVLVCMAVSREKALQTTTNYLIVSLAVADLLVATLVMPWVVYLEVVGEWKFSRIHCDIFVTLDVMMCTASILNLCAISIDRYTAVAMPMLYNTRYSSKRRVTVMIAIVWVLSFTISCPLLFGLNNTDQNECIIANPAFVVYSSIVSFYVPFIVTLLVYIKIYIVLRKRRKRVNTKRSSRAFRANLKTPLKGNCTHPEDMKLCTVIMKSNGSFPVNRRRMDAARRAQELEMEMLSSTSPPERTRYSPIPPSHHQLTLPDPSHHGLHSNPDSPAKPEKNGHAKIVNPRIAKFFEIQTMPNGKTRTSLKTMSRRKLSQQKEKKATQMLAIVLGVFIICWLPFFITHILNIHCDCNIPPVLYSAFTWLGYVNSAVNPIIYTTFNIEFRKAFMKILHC
T2 sequence (P14416 whole entry): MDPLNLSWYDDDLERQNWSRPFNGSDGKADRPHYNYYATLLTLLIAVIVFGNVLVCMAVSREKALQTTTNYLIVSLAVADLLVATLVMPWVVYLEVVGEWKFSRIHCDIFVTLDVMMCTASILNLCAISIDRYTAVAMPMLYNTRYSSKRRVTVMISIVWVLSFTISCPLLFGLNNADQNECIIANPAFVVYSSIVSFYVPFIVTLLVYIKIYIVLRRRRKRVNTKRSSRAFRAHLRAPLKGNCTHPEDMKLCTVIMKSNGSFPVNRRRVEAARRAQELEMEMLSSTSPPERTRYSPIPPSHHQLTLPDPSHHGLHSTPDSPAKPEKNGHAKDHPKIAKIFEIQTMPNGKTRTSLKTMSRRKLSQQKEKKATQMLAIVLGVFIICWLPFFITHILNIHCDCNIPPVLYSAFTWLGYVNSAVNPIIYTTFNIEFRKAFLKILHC

Row | SMILES | melting point | Ki (dopamine-D2 receptors; [2]) [nM] | Dopamine-D2 cAMP accum ∈ (intrinsic activity) [1] | Ki (serotonin reuptake sites; [3]) [nM] | Ki (dopamine-D2 receptors) [nM] | Ki (serotonin reuptake sites) [nM]
1 | C[C@@H]1CN(c2cccc3[nH]c(=O)oc23)C[C@H](C)N1CCCc1c[nH]c2ccc(F)cc12 (as salt: HCl) [compound 1] | 270 to 275 °C |  |  |  |  | 
2 | CC(CCc1c[nH]c2ccc(F)cc12)N1CCN(c2cccc3c2oc(=O)n3C)CC1 (centres unmarked) (as salt: HCl) [compound 2] | 207 to 209 °C |  |  |  |  | 
3 | CC(CCN1CCN(c2cccc3c2oc(=O)n3C)CC1)c1c[nH]c2ccc(F)cc12 (centres unmarked) (as salt: HCl) [compound 3] | 100 to 140 °C (dec.) |  |  |  |  | 
4 | Cn1cc(CCCN2CCN(c3cccc4c3oc(=O)n4C)CC2)c2cc(F)ccc21 (as salt: HCl) [compound 8] | > 225 °C (dec.) |  |  |  |  | 
5 | Cn1c(=O)oc2c(N3CCN(CCCCc4c[nH]c5ccc(F)cc45)CC3)cccc21 (as salt: HCl) [compound 11] | 254 to 256 °C |  |  |  |  | 
6 | Cn1c(=O)oc2c(N3CCN(CCCCc4c[nH]c5ccc(C#N)cc45)CC3)cccc21 (as salt: HCl) [compound 12] | 213 to 215 °C |  |  |  |  | 
7 | Cn1c(=O)oc2c(N3CCN(CCCc4c[nH]c5ccc(F)cc45)CC3)cc(F)cc21 (as salt: HCl) [compound 15] | 246 to 249 °C |  |  |  |  | 
8 | CCn1c(=O)oc2c(N3CCN(CCCc4c[nH]c5ccc(F)cc45)CC3)cccc21 (as salt: HCl) [compound 16] | 100 to 140 °C |  |  |  |  | 
9 | C[C@@H]1CN(c2cccc3[nH]c(=O)oc23)C[C@H](C)N1CCCc1c[nH]c2ccc(F)cc12 [compound 1] |  | 20 | 0.13 | 5.01 |  | 
10 | CC(CCc1c[nH]c2ccc(F)cc12)N1CCN(c2cccc3c2oc(=O)n3C)CC1 (centres unmarked) [compound 2] |  | 158 |  | 1 |  | 
11 | CC(CCN1CCN(c2cccc3c2oc(=O)n3C)CC1)c1c[nH]c2ccc(F)cc12 (centres unmarked) [compound 3] |  | 100 | 0.43 | 0.794 |  | 
12 | CC(Cc1c[nH]c2ccc(F)cc12)CN1CCN(c2cccc3c2oc(=O)n3C)CC1 (centres unmarked) [compound 4] | 166 to 168 °C | 7.94 | 0.22 | 2.51 |  | 
13 | Cc1cc(Cl)cc2c(CCCN3CCN(c4cccc5c4oc(=O)n5C)CC3)c[nH]c12 [compound 6] | 159 to 162 °C |  | 0.52 |  |  | 
14 | Cn1cc(CCCN2CCN(c3cccc4c3oc(=O)n4C)CC2)c2cc(Cl)ccc21 [compound 7] | 140 to 142 °C | 200 | 0.15 | 2.51 |  | 
15 | Cn1cc(CCCN2CCN(c3cccc4c3oc(=O)n4C)CC2)c2cc(F)ccc21 [compound 8] |  | 31.6 | 0.44 | > 10 |  | 
16 | Cn1c(=O)oc2c(N3CCN(CCCc4c[nH]c5ccc(F)cc45)CC3)cccc21 [compound 9] | 135 to 137 °C | 79.4 | 0.12 | 7.94 |  | 
17 | Cn1c(=O)oc2c(N3CCN(CCCc4c[nH]c5ccc(C#N)cc45)CC3)cccc21 [compound 10] | 151 to 152 °C | 126 | 0.66 | 3.98 |  | 
18 | Cn1c(=O)oc2c(N3CCN(CCCCc4c[nH]c5ccc(F)cc45)CC3)cccc21 [compound 11] |  | 25.1 | 0.72 | > 10 |  | 
19 | Cn1c(=O)oc2c(N3CCN(CCCCc4c[nH]c5ccc(C#N)cc45)CC3)cccc21 [compound 12] |  | 7.94 | 0.75 | < 1 |  | 
20 | Cn1c(=O)oc2c(N3CCN(CCc4c[nH]c5ccc(F)cc45)CC3)cccc21 [compound 13] | 198 to 200 °C |  | 0.22 |  | 3.98 | 3.16
21 | Cn1c(=O)oc2c(N3CCN(CCCc4c[nH]c5ccc(F)cc45)CC3)cc(F)cc21 [compound 15] |  | 79.4 |  | 0.316 |  | 
22 | CCn1c(=O)oc2c(N3CCN(CCCc4c[nH]c5ccc(F)cc45)CC3)cccc21 [compound 16] |  | 39.8 | 0.15 | < 1 |  | 
23 | Fc1ccc2[nH]cc(CCCN3CCN(c4cccc5[nH]c(=S)oc45)CC3)c2c1 [compound 17] | 238 to 240 °C (dec.) | 15.8 | 0.32 | 5.01 |  | 
